Laboratory results from article PMC9747239, “State-selective modulation of heterotrimeric Gαs signaling with macrocyclic peptides” (Cell, 2022).
Where a SMILES comes first, the peptide text is derived from it. Bridges are numbered along the chain shown (N, C = ends). Where no end group is shown, it is not given here. [ ]: non-standard residue; d: D form. The star is where a group is joined. NH(CH2CH2O)2(CH2)6Cl = ClCCCCCCOCCOCCN*

B2: Biotinylated Avi-Gαs (WT), residues 7-380 of the short isoform of human Gαs (natural protein)
chain: SKTEDQRNEEKAQREANKKIEKQLQKDKQVYRATHRLLLLGAGESGKSTIVKQMRILHVNGFNGDSEKATKVQDIKNNLKEAIETIVAAMSNLVPPVELANPENQFRVDYILSVMNVPDFDFPPEFYEHAKALWEDEGVRACYERSNEYQLIDCAQYFLDKIDVIKQADYVPSDQDLLRCRVLTSGIFETKFQVDKVNFHMFDVGGQRDERRKWIQCFNDVTAIIFVVASSSYNMVIREDNQTNRLQEALNLFKSIWNNRWLRTISVILFLNKQDLLAEKVLAGKSKIEDYFPEFARYTTPEDATPEPGEDPRVTRAKYFIRDEFLRISTASGDGRHYCYPHFTCAVDTENIRRVFNDCRDIIQRMHLRQYELL
modifications: biotin on the Avi tag
notes: Gαs (GNAS), human, short isoform (380 residues), residues 7-380; Loaded with GppNHp (GNP) or GDP as the assay says; also called Biotinylated Gαs/GNP; Biotinylated Gαs/GDP; source: E. coli BL21(DE3), purified (TALON, Source-15Q, gel filtration), biotinylated with BirA; not shown: Avi tag, N-terminal, kept; His6, N-terminal, cleaved

Key:
[1] = Chemical stability assay in DMEM with 10% FBS; format: in vitro ADME; conditions: bovine, DMEM with 10% FBS (fetal bovine serum), 37 °C, values represent 95% confidence intervals, read-out: Half-life (hour), chemical stability in DMEM with 10% FBS
Experimental: (§1) These assays were conducted by Pharmaron Beijing CO., Ltd. Cyclic peptides working solutions were prepared at 10 μM in DMEM with 10% FBS (Avantor, Cat# 76,294–180) or human plasma (Pooled, Male & Female, BioIVT, Cat# HMN666664). The assays were performed in duplicate. Vials were incubated at 37 °C at 60 rpm in a water bath and taken at designated time points including 0, 480, 1080 and 1440 min. For each time point, the initiation of the reaction was staggered so all the time points were terminated with cold acetonitrile containing internal standards (IS, 100 nM alprazolam, 200 nM labetalol, 200 nM Imipramine and 2 μM ketoplofen) at the same time. Samples were vortexed then centrifuged at 4°C to remove proteins. The supernatants from centrifugation were diluted by ultra-pure H2O and used for LC-MS/MS analysis. All calculations were carried out using GraphPad Prism. Remaining percentages of parent compounds at each time point were estimated by determining the peak area ratios from extractedion chromatograms.

Plasma stability assay = format: in vitro ADME; conditions: both sexes, pooled human plasma, 37 °C, values represent 95% confidence intervals, read-out: Half-life (hour), plasma stability
Experimental: as §1

Gαs/GDP = molecular target: T1, Gαs/GDP (Homo sapiens, UniProt P63092); experiment: Bio-layer interferometry (BLI), GDP-bound Gαs; conditions: read-out: KD, binding to Gαs/GDP
T1 construct: hexahistidine (N, cleaved yes); made in house; host or cells: E. coli BL21(DE3)
Experimental: BLI experiments were performed using an OctetRED384 instrument from ForteBio. All experiments were performed at 25°C using BLI buffer (10 mM HEPES pH 7.4, 150 mM NaCl, 1mM MgCl2, 0.05% Tween 20, 0.1% DMSO, 0.2 mM GNP or GDP). Cyclic peptides or Gα proteins were diluted to a series of concentrations (Final concentrations were indicated in Figures) in BLI buffer plus 10 μM Biotin. Assays were conducted in Greiner 384well, black, flat bottom polypropylene plates containing the protein solutions, BLI buffer plus 10 μM Biotin for dissociation, and serial dilutions of cyclic peptides to be tested.
Biotinylated proteins or cyclic peptides were immobilized on Streptavidin biosensors by dipping sensors into plate wells containing protein solutions at a concentration of 50–150 nM. Protein loading is around 2–3 nm. Cyclic peptide loading is around 0.2–0.3 nm. Sensors loaded with proteins or cyclic peptides were moved and dipped into wells with BLI buffer plus 10 μM Biotin to block unlabeled Streptavidin. […]
Raw kinetic data collected were processed with the Data Analysis software provided by the manufacturer using single reference subtraction in which buffer-only reference was subtracted (For GN13 analysis). […] The resulting data were analyzed based on a 1:1 binding model from which kon and koff values were obtained and then Kd values were calculated.

Gαs/GDP and Gβγ(C68S) = molecular target: T2, Gαs/GDP and Gβγ(C68S) (Homo sapiens, UniProt P63092); experiment: FRET based Gαs/Gβγ interaction assay; format: binding
T2 construct: hexahistidine (N, cleaved yes); made in house; host or cells: E. coli BL21(DE3) (Gαs); Sf9 insect cells (Gβ1γ2)

HeLa cells = experiment: Chloroalkane penetration assay (CAPA); format: cell-based, human; conditions: HeLa cells expressing HaloTag, 19.5 h incubation
Experimental: The cell lines used for CAPA were HeLa cell lines, generated by Chenoweth and co-workers, that stably express HaloTag exclusively in the cytosol ([Peraro et al., 2018]). Cells were seeded in a 96-well plate the day before the experiment at a density of 4 × 10^4 cells per well. The day of the experiment the media was aspirated, and 100 μL of cyclic peptide dilutions in DMEM were added to the cells. Plate was incubated for 19.5 h at 37°C with 5% CO2. The contents of the wells were aspirated off, and wells were washed using fresh Opti-MEM for 15 min. The wash was aspirated off, and the cells were chased using 5 μM ct-TAMRA for 15 min, except for the No-ct-TAMRA control wells, which were incubated with Opti-MEM alone. The contents of the wells were aspirated and washed with fresh Opti-MEM for 30 min. After aspiration, cells were rinsed once with PBS (PBS). The cells were then trypsinized, quenched with DMEM, resuspended in PBS, and analyzed using a benchtop flow cytometer (CytoFLEX, Beckman). Final [cyclic peptide]: 0, 0.034, 0.10, 0.31, 0.93, 2.78, 8.33, 25 μM.

[2] = molecular target: B2; experiment: BLI; biotinylated Gαs loaded with GDP immobilised on streptavidin biosensors (2-3 nm), cyclic peptide as analyte (4.12-1000 nM), association 120 s, dissociation 120 s, 25 °C, 10 mM HEPES pH 7.4, 150 mM NaCl, 1 mM MgCl2, 0.05% Tween 20, 0.1% DMSO, 0.2 mM GDP; double reference subtraction, 1:1 binding model; conditions: both partners purified
[3] = molecular target: T3, Adenylyl cyclase (C1 domain of ADCY5, VC1, with C2 domain of ADCY2, IIC2) (human, UniProt O95622 442-658; Q08462 871-1082); experiment: AlphaScreen or HTRF; TR-FRET competition: biotinylated GNP-bound Gαs (100 nM) with streptavidin XL665, AC (VC1 20 nM, IIC2 40 nM, forskolin 100 uM) with anti-6His-Tb cryptate, GN13 0-40,000 nM, 1 h at room temperature, 1X PBS 7.4, 0.1% BSA, 2 mM DTT, 2 mM MgCl2; conditions: both partners purified
T3 construct: C1 domain (VC1) of adenylyl cyclase V; C2 domain (IIC2) of human adenylyl cyclase II, residues 871-1082; Forskolin (100 uM) was present in the assay; also called AC; VC1/IIC2; source: E. coli BL21(DE3), purified (TALON, gel filtration); VC1 and IIC2 mixed with forskolin as one AC stock

[4] = molecular target: T4, Adenylyl cyclase (AC): C1 domain of ADCY5 (VC1) with C2 domain of ADCY2 (IIC2), with forskolin (human, UniProt O95622 442-658; Q08462 871-1082); experiment: AlphaScreen or HTRF; TR-FRET Gαs/adenylyl cyclase interaction assay: 100 nM GNP-bound biotinylated Gαs with streptavidin XL665, 20 nM VC1, 40 nM IIC2, 100 μM forskolin with anti-6His-Tb cryptate, cyclic peptide series; 1X PBS 7.4, 0.1% BSA, 2 mM DTT, 2 mM MgCl2, 1 h at room temperature; conditions: both partners purified
T4 construct: C1 domain of human ADCY5 (adenylyl cyclase V), residues 442-658; C2 domain of human ADCY2 (adenylyl cyclase II), residues 871-1082; In the TR-FRET assay AC was detected with anti-6His-Tb cryptate; source: E. coli BL21(DE3), each domain purified (TALON, gel filtration), mixed as an AC stock with forskolin

Work on `CC[C@H](C)[C@@H]1NC(=O)[C@H](CC(C)C)NC(=O)[C@@H](Cc2ccc(O)cc2)NC(=O)CSC[C@@H](C(=O)NCC(N)=O)NC(=O)[C@@H]2CCCN2C(=O)[C@H](CC(C)C)NC(=O)[C@H](CC(N)=O)NC(=O)[C@H](CC(C)C)NC(=O)[C@H](C)NC(=O)[C@H](Cc2c[nH]c3ccccc23)NC(=O)[C@H](CCC(N)=O)NC(=O)[C@H](CCCNC(=N)N)NC(=O)[C@H](Cc2ccccc2)NC(=O)[C@H]([C@@H](C)O)NC1=O` [cpGD20] ({CH2CO}-[dY]LITFRQWALNLPCG-NH2; thioether N-14) yielded a half-life at 10 μM [1] of 37.4 to 50.3 h, a half-life at 10 μM (Plasma stability assay) of 7.16 to 12.7 h and a Kd (Gαs/GDP) of 14.5 ± 0.4 nM. For the same molecule, the IC50 (Gαs/GDP and Gβγ(C68S)) was 14 ± 0.6 nM.

For `CC[C@H](C)[C@@H]1NC(=O)[C@H](CC(C)C)NC(=O)[C@@H](Cc2ccc(O)cc2)NC(=O)CSC[C@@H](C(=O)NCC(=O)NCCOCCOCCCCCCCl)NC(=O)[C@@H]2CCCN2C(=O)[C@H](CC(C)C)NC(=O)[C@H](CC(N)=O)NC(=O)[C@H](CC(C)C)NC(=O)[C@H](C)NC(=O)[C@H](Cc2c[nH]c3ccccc23)NC(=O)[C@H](CCC(N)=O)NC(=O)[C@H](CCCNC(=N)N)NC(=O)[C@H](Cc2ccccc2)NC(=O)[C@H]([C@@H](C)O)NC1=O` [ct-GD20-F10L] ({CH2CO}-[dY]LITFRQWALNLPCG-{NH(CH2CH2O)2(CH2)6Cl}; thioether N-14), the “cell penetration (CAPA)” value (HeLa cells) was “further improved cell penetration”.

With `CC[C@H](C)[C@@H]1NC(=O)[C@H](CC(C)C)NC(=O)[C@@H](Cc2ccc(O)cc2)NC(=O)CSC[C@@H](C(=O)NCC(=O)NCCOCCOCCCCCCCl)NC(=O)[C@@H]2CCCN2C(=O)[C@H](CC(C)C)NC(=O)[C@H](CC(N)=O)NC(=O)[C@H](Cc2ccccc2)NC(=O)[C@H](C)NC(=O)[C@H](Cc2c[nH]c3ccccc23)NC(=O)[C@H](CCC(N)=O)NC(=O)[C@H](CCCNC(=N)N)NC(=O)[C@H](Cc2ccccc2)NC(=O)[C@H]([C@@H](C)O)NC1=O` [ct-GD20] ({CH2CO}-[dY]LITFRQWAFNLPCG-{NH(CH2CH2O)2(CH2)6Cl}; thioether N-14) the “cell penetration (CAPA)” value (HeLa cells) was “cell permeable”.

In the case of `CC[C@H](C)[C@@H]1NC(=O)[C@H](C)NC(=O)[C@H](Cc2ccc(O)cc2)NC(=O)[C@H](C(C)C)NC(=O)[C@H](CO)NC(=O)[C@H](CCC(N)=O)NC(=O)[C@H](Cc2ccccc2)NC(=O)[C@@H](Cc2ccc(O)cc2)NC(=O)CSC[C@@H](C(=O)NCC(=O)NCCOCCOCCCCCCCl)NC(=O)[C@H](CC(C)C)NC(=O)[C@H]([C@@H](C)O)NC(=O)CNC(=O)[C@H](Cc2c[nH]c3ccccc23)NC1=O` [ct-GN13-E3Q] ({CH2CO}-[dY]FQSVYAIWGTLCG-{NH(CH2CH2O)2(CH2)6Cl}; thioether N-13), the “cell penetration (CAPA)” value (HeLa cells) is reported as “measurable cell penetration”.

B1: GD20 (peptide)
peptide: {CH2CO}-[dY]LITFRQWAFNLPCG
modifications: thioether N-14
notes: Selected by RaPID mRNA display; Synthesised on NovaPEG Rink Amide resin, so a C-terminal amide is surmised; source: synthetic peptide (Fmoc solid phase synthesis, cyclised, RP-HPLC)
With B1 the koff [2] was 0.00343 s⁻¹ and the kon [2] was 109000 M⁻¹ s⁻¹.

B2: binds [3].

B3: Biotinylated Avi-Gαs (WT), residues 7-380 of the short isoform of human Gαs (natural protein)
chain: SKTEDQRNEEKAQREANKKIEKQLQKDKQVYRATHRLLLLGAGESGKSTIVKQMRILHVNGFNGDSEKATKVQDIKNNLKEAIETIVAAMSNLVPPVELANPENQFRVDYILSVMNVPDFDFPPEFYEHAKALWEDEGVRACYERSNEYQLIDCAQYFLDKIDVIKQADYVPSDQDLLRCRVLTSGIFETKFQVDKVNFHMFDVGGQRDERRKWIQCFNDVTAIIFVVASSSYNMVIREDNQTNRLQEALNLFKSIWNNRWLRTISVILFLNKQDLLAEKVLAGKSKIEDYFPEFARYTTPEDATPEPGEDPRVTRAKYFIRDEFLRISTASGDGRHYCYPHFTCAVDTENIRRVFNDCRDIIQRMHLRQYELL
modifications: biotin on the Avi tag (BirA)
notes: human Gαs (GNAS), short isoform, residues 7-380; Loaded with GNP (GppNHp) or GDP; the nucleotide state is told by the assay; also called Gαs/GNP; Gαs/GDP; source: E. coli BL21(DE3), purified (TALON, Drice cleavage, BirA biotinylation, Source-15Q, gel filtration); not shown: Avi tag, N-terminal, kept; His6, N-terminal, cleaved
B3: binds [4].
